According to patent publication US20180318415A1, “NOVEL ADJUVANT FORMULATIONS” (GLAXOSMITHKLINE BIOLOGICALS, SA, priority 2015, published 2018):

Test system: rabbits
Test: Rabbit pyrogen test (USP<151>)
Details: CRX-601 per kg animal body weight

CCCCCCCCCCC[C@H](CC(=O)NC1C(OC(=O)C[C@@H](CCCCCCCCCCC)OCCCCCCCCCC)[C@H](OP(=O)(O)O)C(CO)O[C@H]1OC[C@H](NC(=O)C[C@@H](CCCCCCCCCCC)OCCCCCCCCCC)C(=O)O)OCCCCCCCCCC (stereo partly shown) [free CRX-601]
Max non-pyrogenic dose: 0.001 to 0.002 µg/kg
